From US10695425B2, “Methods for treating and/or limiting development of diabetes in subjects with amyotrophic lateral sclerosis” (Biocrine AB, priority 2015, dated 2020)

Test system: αTC1-6 cells
Assay: K+ depolarization-induced [Ca2+]i response in αTC1-6 cells (fura-2)
Assay type: cell-based, mouse
Settings: αTC1-6 cells pre-exposed to specific Ca2+ channel blocker
Procedure: A glucose concentration of 11 mM was used for islet stimulation. After loading, islets and cells on the glass coverslips were transferred to an open perifusion chamber maintained at 37° C. and [Ca^2+]i measured as the 340/380 nm ratio. The light source was equipped with a xenon arc lamp and an integrated shutter (Lambda DG-4, Sutter instrument company), and coupled to the microscope (Olympus ix 71) via a liquid light guide. The 16-bit grayscale images with a binning of 1×1 were captured every 1 s (exposure time ranged from 100 to 300 ms) with a cooled EM-CCD camera (ImagEM X2, Hamamatsu). The camera and shutter were controlled by METAFLUOR® (Molecular Devices) software, which was also used for analysis. Cells with bright [Ca^2+]i signal defined the regions of interest (ROIs). ROI signals were calculated by subtracting background noise signal.

Substance: w-agatoxin TK
- blocker-sensitive share of K+ depolarization-induced [Ca2+]i increase: considerable number
